Data from PubChem BioAssay (NCI).
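Cells were grown in 96-well plates and exposed to each compound for 48 hours at five concentrations; endpoints were interpolated linearly between bracketing concentrations, or set to the highest concentration if not reached. GI50 = concentration required for 50% inhibition of growth. The concentration for full growth arrest is given as TGI.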

Columns and labels:
Assay in all cases: NCI-60 cell line screen, 48 h
[1] = test system: 786-0 renal
[2] = test system: BT-549 breast
[3] = test system: COLO 205 colon
[4] = test system: DU-145 prostate
[5] = test system: HCC-2998 colon
[6] = test system: HCT-15 colon
[7] = test system: HL-60(TB) leukemia
[8] = test system: K-562 leukemia
[9] = test system: KM12 colon
[10] = test system: LOX IMVI melanoma
[11] = test system: M14 melanoma
[12] = test system: MCF7 breast
[13] = test system: MDA-MB-435
[14] = test system: MOLT-4 leukemia
[15] = test system: NCI-H23 lung
[16] = test system: NCI-H522 lung
[17] = test system: NCI/ADR-RES ovarian
[18] = test system: PC-3 prostate
[19] = test system: RPMI-8226 leukemia
[20] = test system: SF-268 CNS
[21] = test system: SK-MEL-2 melanoma
[22] = test system: SK-MEL-28 melanoma
[23] = test system: SK-MEL-5 melanoma
[24] = test system: SW-620 colon
[25] = test system: UACC-257 melanoma
[26] = test system: UACC-62 melanoma
[27] = test system: ACHN renal
[28] = test system: HS 578T breast
[29] = test system: NCI-H226 lung
[30] = test system: OVCAR-5 ovarian
[31] = test system: SK-OV-3 ovarian
[32] = test system: SNB-75 CNS
[33] = test system: UO-31 renal
[34] = test system: A549 NSCLC
[35] = test system: CAKI-1 renal
[36] = test system: CCRF-CEM leukemia
[37] = test system: HOP-62 NSCLC
[38] = test system: HOP-92 NSCLC
[39] = test system: IGROV1 ovarian
[40] = test system: MALME-3M melanoma
[41] = test system: NCI-H460 lung
[42] = test system: OVCAR-4 ovarian
[43] = test system: RXF 393 renal
[44] = test system: SR leukemia
[45] = test system: T-47D breast
[46] = test system: U251 CNS
[47] = test system: EKVX NSCLC
[48] = test system: MDA-MB-231 breast
[49] = test system: OVCAR-3 ovarian
[50] = test system: OVCAR-8 ovarian
[51] = test system: SF-295 CNS
[52] = test system: SF-539 CNS
[53] = test system: SN12C renal
[54] = test system: TK-10 renal

## COc1ccc(-n2nnc3c(sc4ccccc43)c2=O)cc1
[1]
  GI50: 3.61 µM
  TGI: > 100 µM
[2]
  GI50: > 100 µM
  TGI: > 100 µM
[3]
  GI50: > 100 µM
  TGI: > 100 µM
[4]
  GI50: > 100 µM
  TGI: > 100 µM
[5]
  GI50: > 100 µM
  TGI: > 100 µM
[6]
  GI50: > 100 µM
  TGI: > 100 µM
[7]
  GI50: > 100 µM
  TGI: > 100 µM
[8]
  GI50: > 100 µM
  TGI: > 100 µM
[9]
  GI50: > 100 µM
  TGI: > 100 µM
[10]
  GI50: > 100 µM
  TGI: > 100 µM
[11]
  GI50: > 100 µM
  TGI: > 100 µM
[12]
  GI50: > 100 µM
  TGI: > 100 µM
[13]
  GI50: > 100 µM
  TGI: > 100 µM
[14]
  GI50: > 100 µM
  TGI: > 100 µM
[15]
  GI50: > 100 µM
  TGI: > 100 µM
[16]
  GI50: > 100 µM
  TGI: > 100 µM
[17]
  GI50: > 100 µM
  TGI: > 100 µM
[18]
  GI50: > 100 µM
  TGI: > 100 µM
[19]
  GI50: > 100 µM
  TGI: > 100 µM
[20]
  GI50: > 100 µM
  TGI: > 100 µM
[21]
  GI50: > 100 µM
  TGI: > 100 µM
[22]
  GI50: > 100 µM
  TGI: > 100 µM
[23]
  GI50: > 100 µM
  TGI: > 100 µM
[24]
  GI50: > 100 µM
  TGI: > 100 µM
[25]
  GI50: > 100 µM
  TGI: > 100 µM
[26]
  GI50: > 100 µM
  TGI: > 100 µM

## N=C(N)c1ccc(-c2ccc(-c3ccc(Cl)cc3Cl)o2)cc1
[27]
  GI50: 1.68 µM
  TGI: 3.06 µM
[28]
  GI50: 2.13 µM
  TGI: 4.99 µM
[13]
  GI50: 1.7 µM
  TGI: 3.09 µM
[29]
  GI50: 1.82 µM
  TGI: 4.28 µM
[30]
  GI50: 1.53 µM
  TGI: 2.95 µM
[20]
  GI50: 2.03 µM
  TGI: 4.65 µM
[22]
  GI50: 1.61 µM
  TGI: 3.03 µM
[23]
  GI50: 1.74 µM
  TGI: 3.13 µM
[31]
  GI50: 1.62 µM
  TGI: 3.23 µM
[32]
  GI50: 1.4 µM
  TGI: 2.73 µM
[33]
  GI50: 1.67 µM
  TGI: 3.18 µM

## CCOC(=O)C1(C(=O)OCC)CCC(C(OC)OC)C(CC(=O)OC)C1 (stereo unspecified)
[1]
  TGI: > 10 µM
[34]
  TGI: > 10 µM
[27]
  TGI: > 10 µM
[35]
  TGI: > 10 µM
[36]
  TGI: > 10 µM
[3]
  TGI: > 10 µM
[7]
  TGI: > 10 µM
[37]
  TGI: > 10 µM
[38]
  TGI: > 10 µM
[39]
  TGI: > 10 µM
[8]
  TGI: > 10 µM
[11]
  TGI: > 10 µM
[40]
  TGI: > 10 µM
[12]
  TGI: > 10 µM
[13]
  TGI: > 10 µM
[14]
  TGI: > 10 µM
[15]
  TGI: > 10 µM
[41]
  TGI: > 10 µM
[17]
  TGI: > 10 µM
[42]
  TGI: > 10 µM
[19]
  TGI: > 10 µM
[43]
  TGI: > 10 µM
[20]
  TGI: > 10 µM
[21]
  TGI: > 10 µM
[22]
  TGI: > 10 µM
[23]
  TGI: > 10 µM
[31]
  TGI: > 10 µM
[32]
  TGI: > 10 µM
[44]
  TGI: > 10 µM
[24]
  TGI: > 10 µM
[45]
  TGI: > 10 µM
[46]
  TGI: > 10 µM
[26]
  TGI: > 10 µM

## COc1ccc(OC)c(-c2cc(-c3ccccc3)nn2-c2ccc(S(=O)(=O)NC(C)=O)cc2)c1
[1]
  GI50: 10.8 µM
  TGI: 23.4 µM
[34]
  GI50: 22.9 µM
  TGI: > 100 µM
[2]
  GI50: 16.2 µM
  TGI: 38.6 µM
[35]
  GI50: 13.9 µM
  TGI: 33.9 µM
[36]
  GI50: 2.13 µM
  TGI: 6.55 µM
[4]
  GI50: 17.9 µM
  TGI: 36.9 µM
[47]
  GI50: 22.8 µM
  TGI: 41.8 µM
[5]
  GI50: 3.08 µM
  TGI: 13.8 µM
[6]
  GI50: 3.72 µM
  TGI: 10.2 µM
[7]
  GI50: 28 µM
  TGI: > 100 µM
[38]
  GI50: 14.4 µM
  TGI: 38.9 µM
[28]
  GI50: 27.4 µM
  TGI: 80 µM
[39]
  GI50: 27.4 µM
  TGI: > 100 µM
[8]
  GI50: 3.36 µM
  TGI: 9.76 µM
[9]
  GI50: 4.66 µM
  TGI: 39.6 µM
[11]
  GI50: 2.74 µM
  TGI: 8.74 µM
[12]
  GI50: 2.38 µM
  TGI: > 100 µM
[48]
  GI50: 3.09 µM
  TGI: 14.1 µM
[13]
  GI50: 5.77 µM
  TGI: 22.9 µM
[14]
  GI50: 6.57 µM
  TGI: > 100 µM
[29]
  GI50: 11.7 µM
  TGI: 24.8 µM
[15]
  GI50: 8.24 µM
  TGI: 21.5 µM
[41]
  GI50: 13.2 µM
  TGI: > 100 µM
[16]
  GI50: 10.4 µM
  TGI: 34.8 µM
[17]
  GI50: 3.38 µM
  TGI: 11.5 µM
[49]
  GI50: 2.82 µM
  TGI: 9.55 µM
[30]
  GI50: 16.9 µM
  TGI: 31.3 µM
[50]
  GI50: 5.99 µM
  TGI: 62.1 µM
[18]
  GI50: 6.08 µM
  TGI: 20.6 µM
[19]
  GI50: 1.97 µM
  TGI: 4.36 µM
[43]
  GI50: 4.07 µM
  TGI: 9.31 µM
[20]
  GI50: 10.1 µM
  TGI: 32.2 µM
[51]
  GI50: 16.1 µM
  TGI: 35.1 µM
[52]
  GI50: 28.1 µM
  TGI: 60.4 µM
[21]
  GI50: 36.2 µM
  TGI: > 100 µM
[23]
  GI50: 11.8 µM
  TGI: 26.8 µM
[53]
  GI50: 13.2 µM
  TGI: 26.2 µM
[44]
  GI50: 2.38 µM
  TGI: > 100 µM
[24]
  GI50: 3.52 µM
  TGI: 9.15 µM
[54]
  GI50: 12.8 µM
  TGI: 33.1 µM
[26]
  GI50: 10.9 µM
  TGI: 22.9 µM
[33]
  GI50: 25.3 µM
  TGI: > 100 µM
